Measurements reported in patent US11795150B2, “Synthesis of triethylenetetramines” (Philera New Zealand Limited, priority 2004, dated 2023).

Conditions: 80° C. for nine days

Question: With `NCCNCCNCCN.O=C(O)/C=C/C(=O)O.O=C(O)/C=C/C(=O)O.O=C(O)/C=C/C(=O)O.O=C(O)/C=C/C(=O)O` [Fumaric, triethylenetetramine tetrafumarate] as the compound, how does the “Changes in IR, 1H-NMR and DSC after heat exposure” value (“Changes in IR, 1H-NMR and DSC” below) read?
Answer: Its value is “no changes”.

Question: For `NCCNCCNCCN.O=C(O)/C=C\C(=O)O.O=C(O)/C=C\C(=O)O.O=C(O)/C=C\C(=O)O.O=C(O)/C=C\C(=O)O` [Maleic, triethylenetetramine tetramaleate], which “Changes in IR, 1H-NMR and DSC” value is on record?
Answer: Its value is “no changes”.

Question: With `NCCNCCNCCN.O=C(O)CCC(=O)O.O=C(O)CCC(=O)O` [Succinic, triethylenetetramine disuccinate] as the compound, how does the “Changes in IR, 1H-NMR and DSC” value read?
Answer: The value was “no changes”.
